These results are taken from ChEMBL document CHEMBL1157189, “S-Ribosylhomocysteine analogues with the carbon-5 and sulfur atoms replaced by a vinyl or (fluoro)vinyl unit” (Bioorg Med Chem, 2008).

This test relates to Bacillus subtilis. Put plainly: Inhibition of CO2+ substituted Bacillus subtilis S-ribosyl-homocysteinase.

Turning to `O[C@@H]1C[C@@H](/C=C/F)O[C@@H]1O` (mixture of isomers), the inhibition constant (Ki) amounted to 96 µM.

Usually Ki stands for a measure of affinity in units of concentration, obtained from inhibition or displacement.
